Laboratory results published in ChEMBL document CHEMBL5303304, “EUbOPEN Chemogenomics Library - IncuCyte” (2023).

Experiments:
Format in all cases: toxicity, cell-based
[1] = tested on: HEK-293T; assay: Incucyte cell viability with HEK293T; conditions: human, 10 µM, compound concentration 10 uM
[2] = tested on: Fibroblast; assay: Incucyte cell viability with human fibroblast; conditions: 10 µM, compound concentration 10 uM
[3] = tested on: U2OS; assay: Incucyte cell viability with U2OS; conditions: human, 10 µM, compound concentration 10 uM
Note: unitless GR value; below 1 slowed growth and below 0 cell loss.

SMILES: O=C1Nc2ccc(C(=O)c3ccco3)cc2C1=Cc1cc(Cl)c(O)c(Cl)c1 [GW406108X]
- Growth Rate ([1]; 0 h, replicate number 1): -1
- Growth Rate ([1]; 0 h, replicate number 2): 0.57
- Growth Rate ([1]; 6 h, replicate number 1): 0.79
- Growth Rate ([1]; 6 h, replicate number 2): 0.56
- Growth Rate ([1]; 12 h, replicate number 1): 0.25
- Growth Rate ([1]; 12 h, replicate number 2): 0.31
- Growth Rate ([1]; 18 h, replicate number 1): 0.41
- Growth Rate ([1]; 18 h, replicate number 2): 0.17
- Growth Rate ([1]; 24 h, replicate number 1): 0.24
- Growth Rate ([1]; 24 h, replicate number 2): 0.11
- Growth Rate ([2]; 0 h, replicate number 1): -1
- Growth Rate ([2]; 12 h, replicate number 2): 1
- Growth Rate ([2]; 18 h, replicate number 1): 1
- Growth Rate ([2]; 18 h, replicate number 2): 0.83
- Growth Rate ([2]; 24 h, replicate number 1): 0.7
- Growth Rate ([2]; 24 h, replicate number 2): 0.64
- Growth Rate ([3]; 6 h, replicate number 2): -0.19
- Growth Rate ([3]; 12 h, replicate number 1): 0.5
- Growth Rate ([3]; 12 h, replicate number 2): 0.24
- Growth Rate ([3]; 18 h, replicate number 1): 0.4
- Growth Rate ([3]; 18 h, replicate number 2): 0.33
- Growth Rate ([3]; 24 h, replicate number 1): 0.56
- Growth Rate ([3]; 24 h, replicate number 2): 0.38

SMILES: COC(=O)Nc1nc2c(s1)-c1c(c(-c3cccnc3)nn1-c1ccc(C3(N(C)C)CC3)cc1)CC2.Cl.Cl
- Growth Rate ([1]; 0 h, replicate number 1): -1
- Growth Rate ([2]; 0 h, replicate number 1): -0.29
- Growth Rate ([2]; 0 h, replicate number 2): -1
- Growth Rate ([3]; 0 h, replicate number 1): -0.99
- Growth Rate ([3]; 12 h, replicate number 2): 0.96
- Growth Rate ([3]; 18 h, replicate number 2): 0.74
- Growth Rate ([3]; 24 h, replicate number 2): 0.64

SMILES: O=C1NCc2ccc3c(-c4cccc(Cl)c4)c[nH]c3c21
- Growth Rate ([1]; 6 h, replicate number 1): -0.5
- Growth Rate ([1]; 12 h, replicate number 1): -0.49
- Growth Rate ([1]; 12 h, replicate number 2): -0.24
- Growth Rate ([1]; 18 h, replicate number 1): -0.21
- Growth Rate ([1]; 18 h, replicate number 2): -0.13
- Growth Rate ([1]; 24 h, replicate number 1): -0.06
- Growth Rate ([1]; 24 h, replicate number 2): -0.07
- Growth Rate ([2]; 6 h, replicate number 2): -1
- Growth Rate ([2]; 12 h, replicate number 1): -1
- Growth Rate ([2]; 12 h, replicate number 2): -0.89
- Growth Rate ([2]; 18 h, replicate number 1): -0.89
- Growth Rate ([2]; 18 h, replicate number 2): -0.75
- Growth Rate ([2]; 24 h, replicate number 1): -0.46
- Growth Rate ([2]; 24 h, replicate number 2): -0.57
- Growth Rate ([3]; 6 h, replicate number 1): -0.34
- Growth Rate ([3]; 6 h, replicate number 2): 0.05
- Growth Rate ([3]; 12 h, replicate number 1): -0.32
- Growth Rate ([3]; 12 h, replicate number 2): -0.15
- Growth Rate ([3]; 18 h, replicate number 1): -0.16
- Growth Rate ([3]; 18 h, replicate number 2): -0.11
- Growth Rate ([3]; 24 h, replicate number 1): -0.1
- Growth Rate ([3]; 24 h, replicate number 2): -0.06

SMILES: COc1cc(C(=O)NCCOCCOCCOCC(=O)N[C@H](C(=O)N2C[C@H](O)C[C@H]2C(=O)NCc2ccc(-c3scnc3C)cc2)C(C)(C)C)ccc1Nc1ncc(C(F)(F)F)c(Oc2cccc3c2C(=O)CC3)n1
- Growth Rate ([1]; 6 h, replicate number 1): 0.29
- Growth Rate ([1]; 12 h, replicate number 1): -0.01
- Growth Rate ([1]; 12 h, replicate number 2): 0.02
- Growth Rate ([1]; 18 h, replicate number 1): 0
- Growth Rate ([1]; 18 h, replicate number 2): -0.01
- Growth Rate ([1]; 24 h, replicate number 1): 0.03
- Growth Rate ([1]; 24 h, replicate number 2): -0.02
- Growth Rate ([2]; 0 h, replicate number 2): 0.72
- Growth Rate ([2]; 6 h, replicate number 1): 0.15
- Growth Rate ([2]; 6 h, replicate number 2): -0.8
- Growth Rate ([2]; 12 h, replicate number 1): 0.45
- Growth Rate ([2]; 12 h, replicate number 2): 0.43
- Growth Rate ([2]; 18 h, replicate number 1): 0.28
- Growth Rate ([2]; 18 h, replicate number 2): 0.85
- Growth Rate ([2]; 24 h, replicate number 1): 0.14
- Growth Rate ([2]; 24 h, replicate number 2): 0.84
- Growth Rate ([3]; 0 h, replicate number 2): 0.63
- Growth Rate ([3]; 12 h, replicate number 2): 0.87
- Growth Rate ([3]; 18 h, replicate number 2): 0.66
- Growth Rate ([3]; 24 h, replicate number 1): 0.61
- Growth Rate ([3]; 24 h, replicate number 2): 0.68

SMILES: CCn1c(-c2nc3cc(C(=O)N4CCCC(N)C4)ccc3n2C)cc2ccccc21.Cl (stereo unspecified)
- Growth Rate ([1]; 6 h, replicate number 1): 0.45
- Growth Rate ([1]; 6 h, replicate number 2): 0.09
- Growth Rate ([1]; 12 h, replicate number 2): 0.8
- Growth Rate ([1]; 18 h, replicate number 2): 0.89
- Growth Rate ([1]; 24 h, replicate number 2): 0.87
- Growth Rate ([2]; 6 h, replicate number 1): -0.88
- Growth Rate ([2]; 6 h, replicate number 2): 0.59
- Growth Rate ([2]; 12 h, replicate number 2): 0.96
- Growth Rate ([2]; 18 h, replicate number 2): 0.78
- Growth Rate ([2]; 24 h, replicate number 2): 0.77
- Growth Rate ([3]; 0 h, replicate number 1): -0.07
- Growth Rate ([3]; 0 h, replicate number 2): -0.69

SMILES: Cl.c1ccc2c(c1)CCC[C@H]2Nc1nc2ccccc2[nH]1
- Growth Rate ([1]; 0 h, replicate number 1): 0.86
- Growth Rate ([1]; 0 h, replicate number 2): 0.46
- Growth Rate ([1]; 6 h, replicate number 1): 0.77
- Growth Rate ([2]; 0 h, replicate number 1): 0.94
- Growth Rate ([2]; 0 h, replicate number 2): 0.4
- Growth Rate ([2]; 12 h, replicate number 2): 0.56
- Growth Rate ([2]; 18 h, replicate number 1): 0.44
- Growth Rate ([2]; 18 h, replicate number 2): 0.87
- Growth Rate ([2]; 24 h, replicate number 1): 0.48
- Growth Rate ([3]; 0 h, replicate number 1): 0.01
- Growth Rate ([3]; 6 h, replicate number 2): 0.97
- Growth Rate ([3]; 18 h, replicate number 1): 0.9
- Growth Rate ([3]; 18 h, replicate number 2): 0.95
- Growth Rate ([3]; 24 h, replicate number 1): 0.98

SMILES: CC1CN(CC(=O)N2CC(C)(C)c3nc(CO)c(Cc4ccc(F)cc4)cc32)C(CN2CCOCC2C)CN1 (stereo unspecified)
- Growth Rate ([1]; 0 h, replicate number 2): -0.63
- Growth Rate ([1]; 6 h, replicate number 1): 0.63
- Growth Rate ([1]; 6 h, replicate number 2): 0.88
- Growth Rate ([1]; 12 h, replicate number 2): 0.96
- Growth Rate ([1]; 24 h, replicate number 2): 0.89
- Growth Rate ([2]; 6 h, replicate number 1): 0.63
- Growth Rate ([2]; 6 h, replicate number 2): 0.4
- Growth Rate ([2]; 12 h, replicate number 2): 0.94
- Growth Rate ([2]; 18 h, replicate number 1): 0.98
- Growth Rate ([2]; 18 h, replicate number 2): 0.94
- Growth Rate ([2]; 24 h, replicate number 2): 0.9
- Growth Rate ([3]; 0 h, replicate number 1): -0.23

SMILES: Cc1cc(S(=O)(=O)N2CC(C)(C)c3cc(-c4ccc(C(F)(F)F)cc4)ccc32)ccc1OCC(=O)O
- Growth Rate ([1]; 0 h, replicate number 1): 0.52
- Growth Rate ([1]; 0 h, replicate number 2): -0.17
- Growth Rate ([1]; 6 h, replicate number 1): 0.72
- Growth Rate ([1]; 6 h, replicate number 2): 0.73
- Growth Rate ([1]; 12 h, replicate number 1): 0.7
- Growth Rate ([1]; 12 h, replicate number 2): 0.81
- Growth Rate ([1]; 18 h, replicate number 1): 0.71
- Growth Rate ([1]; 18 h, replicate number 2): 0.95
- Growth Rate ([1]; 24 h, replicate number 1): 0.79
- Growth Rate ([2]; 0 h, replicate number 1): -0.12
- Growth Rate ([2]; 0 h, replicate number 2): -0.87
- Growth Rate ([2]; 6 h, replicate number 1): 0.92
- Growth Rate ([3]; 0 h, replicate number 2): -0.69
- Growth Rate ([3]; 6 h, replicate number 1): 0.69
- Growth Rate ([3]; 6 h, replicate number 2): 0.68
- Growth Rate ([3]; 12 h, replicate number 2): 0.54
- Growth Rate ([3]; 18 h, replicate number 2): 0.8
- Growth Rate ([3]; 24 h, replicate number 2): 0.98

SMILES: C[C@H](NC(=O)c1cc(Cl)ccc1Oc1ccc(F)cc1)c1ccc(C(=O)O)cc1
- Growth Rate ([1]; 0 h, replicate number 1): -0.19
- Growth Rate ([1]; 0 h, replicate number 2): 0.1
- Growth Rate ([2]; 0 h, replicate number 2): -0.45
- Growth Rate ([2]; 6 h, replicate number 1): 0.59
- Growth Rate ([2]; 6 h, replicate number 2): -0.71
- Growth Rate ([2]; 12 h, replicate number 2): 0.98
- Growth Rate ([2]; 18 h, replicate number 1): 0.85
- Growth Rate ([2]; 18 h, replicate number 2): 0.92
- Growth Rate ([2]; 24 h, replicate number 1): 0.86
- Growth Rate ([3]; 6 h, replicate number 2): 0.86
- Growth Rate ([3]; 12 h, replicate number 1): 0.94
- Growth Rate ([3]; 12 h, replicate number 2): 0.8
- Growth Rate ([3]; 24 h, replicate number 2): 0.99

SMILES: Cl.O=c1cc(C2CCNCC2)n2nc3cccc(Cl)c3c2[nH]1
- Growth Rate ([1]; 0 h, replicate number 1): -0.29
- Growth Rate ([1]; 0 h, replicate number 2): -0.61
- Growth Rate ([1]; 12 h, replicate number 2): 0.58
- Growth Rate ([1]; 18 h, replicate number 2): 0.96
- Growth Rate ([1]; 24 h, replicate number 2): 0.91
- Growth Rate ([2]; 0 h, replicate number 1): -0.94
- Growth Rate ([2]; 0 h, replicate number 2): -0.98
- Growth Rate ([3]; 0 h, replicate number 1): 0.61
- Growth Rate ([3]; 6 h, replicate number 1): 0.98
- Growth Rate ([3]; 12 h, replicate number 2): 1
- Growth Rate ([3]; 18 h, replicate number 1): 0.98

SMILES: CC(CNS(=O)(=O)C(C)C)c1ccc(-c2ccc(C#N)cc2)cc1 (stereo unspecified)
- Growth Rate ([1]; 6 h, replicate number 1): -0.35
- Growth Rate ([1]; 12 h, replicate number 1): -0.18
- Growth Rate ([1]; 12 h, replicate number 2): -0.01
- Growth Rate ([1]; 18 h, replicate number 1): 0
- Growth Rate ([1]; 18 h, replicate number 2): 0.16
- Growth Rate ([1]; 24 h, replicate number 1): 0.05
- Growth Rate ([1]; 24 h, replicate number 2): 0.22
- Growth Rate ([2]; 0 h, replicate number 1): 0.04
- Growth Rate ([2]; 6 h, replicate number 1): 0.92
- Growth Rate ([2]; 6 h, replicate number 2): -0.76
- Growth Rate ([2]; 12 h, replicate number 1): -0.89
- Growth Rate ([2]; 12 h, replicate number 2): 0.02
- Growth Rate ([2]; 18 h, replicate number 1): -0.2
- Growth Rate ([2]; 18 h, replicate number 2): 0.43
- Growth Rate ([2]; 24 h, replicate number 1): 0.14
- Growth Rate ([2]; 24 h, replicate number 2): 0.51
- Growth Rate ([3]; 0 h, replicate number 2): 0.02
- Growth Rate ([3]; 12 h, replicate number 1): 0.81
- Growth Rate ([3]; 12 h, replicate number 2): 0.82
- Growth Rate ([3]; 18 h, replicate number 1): 0.83
- Growth Rate ([3]; 18 h, replicate number 2): 0.73
- Growth Rate ([3]; 24 h, replicate number 1): 0.9
- Growth Rate ([3]; 24 h, replicate number 2): 0.84

SMILES: CC(C)Nc1ncnc2cc(OCc3cccc([S@@](C)(=N)=O)c3)c(Br)cc12
- Growth Rate ([1]; 6 h, replicate number 1): 0.65
- Growth Rate ([1]; 6 h, replicate number 2): 0.3
- Growth Rate ([1]; 12 h, replicate number 1): 0.67
- Growth Rate ([1]; 12 h, replicate number 2): 0.73
- Growth Rate ([1]; 18 h, replicate number 1): 0.82
- Growth Rate ([1]; 18 h, replicate number 2): 0.81
- Growth Rate ([1]; 24 h, replicate number 1): 0.82
- Growth Rate ([1]; 24 h, replicate number 2): 0.87
- Growth Rate ([2]; 0 h, replicate number 1): -0.74
- Growth Rate ([3]; 24 h, replicate number 1): 0.93
